Source: US20050101657A1, “Androgen receptor antagonists” (Takeda Chemical Industries Ltd., priority 2001, published 2005)
Substitutions are numbered along the chain they refer to.

target: T1, LNCaP type mutant androgen receptor (Homo sapiens, UniProt P10275, T878A); assay: AR-binding inhibition test (LNCaP type); conditions: radio labeled Mibolerone 3 nM; 4° C., 3 hours; dextran/charcoal method
T1 sequence (P10275 1-920 T878A): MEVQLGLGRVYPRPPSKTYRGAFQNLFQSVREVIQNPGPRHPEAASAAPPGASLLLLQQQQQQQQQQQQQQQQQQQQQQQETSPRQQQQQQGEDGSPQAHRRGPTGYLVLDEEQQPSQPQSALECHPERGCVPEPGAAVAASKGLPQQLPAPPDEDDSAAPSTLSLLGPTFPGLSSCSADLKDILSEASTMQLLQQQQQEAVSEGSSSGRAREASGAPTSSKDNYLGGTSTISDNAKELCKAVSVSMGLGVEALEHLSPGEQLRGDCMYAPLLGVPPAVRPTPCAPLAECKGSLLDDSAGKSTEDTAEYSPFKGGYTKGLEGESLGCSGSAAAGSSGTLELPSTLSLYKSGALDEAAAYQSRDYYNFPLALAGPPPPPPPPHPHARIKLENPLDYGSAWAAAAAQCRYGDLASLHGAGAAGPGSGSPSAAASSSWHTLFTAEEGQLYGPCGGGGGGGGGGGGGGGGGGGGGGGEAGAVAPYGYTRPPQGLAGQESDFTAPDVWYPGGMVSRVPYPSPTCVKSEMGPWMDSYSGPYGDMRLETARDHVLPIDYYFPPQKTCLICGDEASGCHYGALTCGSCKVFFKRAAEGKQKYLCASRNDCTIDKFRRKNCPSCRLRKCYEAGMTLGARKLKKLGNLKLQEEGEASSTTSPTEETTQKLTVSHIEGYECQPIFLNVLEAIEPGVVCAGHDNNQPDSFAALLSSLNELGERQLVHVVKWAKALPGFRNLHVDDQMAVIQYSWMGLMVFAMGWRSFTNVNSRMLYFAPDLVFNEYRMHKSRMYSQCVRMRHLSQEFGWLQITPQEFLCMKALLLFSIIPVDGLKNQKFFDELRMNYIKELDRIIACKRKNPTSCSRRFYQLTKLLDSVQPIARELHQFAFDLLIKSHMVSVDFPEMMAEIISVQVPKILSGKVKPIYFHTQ
Experimental: (§1) A solution of wild type or LNCaP type mutant androgen receptor, radio labeled Mibolerone (final concentration 3 nM) and a compound (final concentration 0.001 to 10 μM) were mixed. The mixture was incubated at 4° C. for 3 hours, and by the dextran/charcoal method, B (Bound) and F (Free) Mibolerone were separated. The radioactivity of B was measured and IC50 was calculated.

For `CCOC(=O)c1c(C)[nH]c(C)c1-c1ccc([N+](=O)[O-])cc1` [Example 1, Ethyl 2,5-dimethyl-4-(4-nitrophenyl)-1H-pyrrole-3-carboxylate], which IC50 is on record?
Its IC50 is 0.2 µM.

With `CCOC(=O)c1c(-c2ccc([N+](=O)[O-])cc2)c(C)n(Cc2ccccc2)c1C` [Example 4, Ethyl 1-benzyl-2,5-dimethyl-4-(4-nitrophenyl)-1H-pyrrole-3-carboxylate] as the molecule, how does the IC50 read?
Its IC50 is 0.0075 µM.

Which IC50 does the source give for `COC(=O)c1c(-c2ccc(C#N)cc2)c(C)n(Cc2ccc(C#N)cc2)c1C` [Example 80, Methyl 1-(4-cyanobenzyl)-4-(4-cyanophenyl)-2,5-dimethyl-1H-pyrrole-3-carboxylate] here?
Its IC50 is 0.068 µM.

target: T2, wild type androgen receptor (Homo sapiens, UniProt P10275); assay: AR-binding inhibition test (wild type); conditions: radio labeled Mibolerone 3 nM; 4° C., 3 hours; dextran/charcoal method
T2 sequence (P10275 1-920): T1 sequence (P10275 1-920 T878A) with A878T
Experimental: as §1

`CCOC(=O)c1c(C)[nH]c(C)c1-c1ccc([N+](=O)[O-])cc1` [Example 1, Ethyl 2,5-dimethyl-4-(4-nitrophenyl)-1H-pyrrole-3-carboxylate] was tested. Which IC50 did it give?
Its IC50 is 0.19 µM.

Which IC50 does the source give for `CCOC(=O)c1c(-c2ccc([N+](=O)[O-])cc2)c(C)n(Cc2ccccc2)c1C` [Example 4, Ethyl 1-benzyl-2,5-dimethyl-4-(4-nitrophenyl)-1H-pyrrole-3-carboxylate] here?
The IC50 was 0.0078 µM.

Which IC50 does the source give for `COC(=O)c1c(-c2ccc(C#N)cc2)c(C)n(Cc2ccc(C#N)cc2)c1C` [Example 80, Methyl 1-(4-cyanobenzyl)-4-(4-cyanophenyl)-2,5-dimethyl-1H-pyrrole-3-carboxylate] here?
Its IC50 is 0.04 µM.

target: T3, mutation type AR (W741C) (Homo sapiens, UniProt P10275, W742C); assay: AR transcription inhibition test (luciferase reporter); type: cell-based; conditions: Cos-7 cells; test compound 1 μM; DHT 0.04 μM; 24 hours; luciferase activity; read-out: Inhibition rate (%) relative to the control
T3 construct: expressed in transfected cells; host or cells: Cos-7
T3 sequence (P10275 1-920 W742C): T1 sequence (P10275 1-920 T878A) with W742C, A878T
Experimental: Cos-7 cells were inoculated in a flask at 5,000,000 cells, and incubated in a culture solution (DMEM+10% Dextran Charcoal (DCC)-Fetal Bovine Serum (FBS) +2 mM glutamine) for 24 hours. A vector DNA in which a mutation type AR (W741C) gene was inserted and a vector DNA combined with luciferase gene downstream of the androgen responsive promoter were cotransfected by the liposome method. Two hours later, the culture medium was replaced and incubation was further carried out for 3 hours. DHT (Dihydrotestosterone) at a final concentration 0.04 μM and a test compound at a final concentration of 1 μM were added, and incubation was further carried out for 24 hours. By measuring luciferase activity, AR transcription inhibitory activity of the test compound was examined.

For `CCOC(=O)c1c(C)[nH]c(C)c1-c1ccc([N+](=O)[O-])cc1` [Example 1, Ethyl 2,5-dimethyl-4-(4-nitrophenyl)-1H-pyrrole-3-carboxylate], which inhibition at 1 µM is on record?
The inhibition at 1 µM was 64.3%.

With `CCOC(=O)c1c(-c2ccc([N+](=O)[O-])cc2)c(C)n(Cc2ccccc2)c1C` [Example 4, Ethyl 1-benzyl-2,5-dimethyl-4-(4-nitrophenyl)-1H-pyrrole-3-carboxylate] as the molecule, how does the inhibition at 1 µM read?
Its inhibition at 1 µM is 20.1%.

How did the inhibition at 1 µM turn out when `COC(=O)c1c(-c2ccc(C#N)cc2)c(C)n(Cc2ccc(C#N)cc2)c1C` [Example 80, Methyl 1-(4-cyanobenzyl)-4-(4-cyanophenyl)-2,5-dimethyl-1H-pyrrole-3-carboxylate] was run?
The inhibition at 1 µM was 80.1%.

tested on: Human prostate cancer cells LNCaP-FGC; assay: Inhibition of prostate-specific antigen (PSA) production in prostate cancer cells; type: cell-based; conditions: 72 h, testosterone 1 ng/ml, three days after addition, ELISA, read-out: IC50, PSA production in culture supernatant
Experimental: Human prostate cancer cells LNCaP-FGC were seeded in a 24-well plate at a concentration of 40,000 cells/ml/well or in a 96-well plate at a concentration of 5000 cells/100 μl/well. On the following day, testosterone (final concentration 1 ng/ml) and a compound (final concentration 0.01 to 10 μM) were added. Three days after the addition, the concentration of PSA in the supernatant of the culture solution was measured by ELISA, and IC50 was calculated.

How did the IC50 turn out when `CC(O)(CS(=O)(=O)c1ccc(F)cc1)C(=O)Nc1ccc(C#N)c(C(F)(F)F)c1` (stereo not shown) [Bicalutamide, bicalutamide, reference compound] was run?
The IC50 was 0.823 µM.

For `CCOC(=O)c1c(C)[nH]c(C)c1-c1ccc([N+](=O)[O-])cc1` [Example 1, Ethyl 2,5-dimethyl-4-(4-nitrophenyl)-1H-pyrrole-3-carboxylate], which IC50 is on record?
Its IC50 is 0.392 µM.

For `CCOC(=O)c1c(-c2ccc([N+](=O)[O-])cc2)c(C)n(Cc2ccccc2)c1C` [Example 4, Ethyl 1-benzyl-2,5-dimethyl-4-(4-nitrophenyl)-1H-pyrrole-3-carboxylate], which IC50 is on record?
Its IC50 is 0.087 µM.

Which IC50 does the source give for `COC(=O)c1c(-c2ccc(C#N)cc2)c(C)n(Cc2ccc(C#N)cc2)c1C` [Example 80, Methyl 1-(4-cyanobenzyl)-4-(4-cyanophenyl)-2,5-dimethyl-1H-pyrrole-3-carboxylate] here?
The IC50 was 0.034 µM.
